Data as given in ChEMBL document CHEMBL1152225, “Optimization of a series of potent and selective ketone histone deacetylase inhibitors” (Bioorg Med Chem Lett, 2008).
The source made the active and inactive calls. The calls are words filed in the database; no cut-off is given here.

Experiments:
HeLa = experiment: Antiproliferative activity against human HeLa cells after 72 hrs by celltiter-blue viability assay; format: functional, cell-based
[1] = Metabolic stability in rat liver microsomes assessed as intrinsic clearance; format: ADME, Microsome
Histone deacetylase 1 = Histone deacetylase 1 (Homo sapiens, UniProt Q13547)
Description: Inhibition of human recombinant C-terminally flag tagged HDAC1

Histone deacetylase 3 = Histone deacetylase 3 (Homo sapiens, UniProt O15379)
[2] = biological target: T1, Protein deacetylase HDAC6 (Homo sapiens, UniProt Q9UBN7)
T1 sequence (Q9UBN7 whole entry): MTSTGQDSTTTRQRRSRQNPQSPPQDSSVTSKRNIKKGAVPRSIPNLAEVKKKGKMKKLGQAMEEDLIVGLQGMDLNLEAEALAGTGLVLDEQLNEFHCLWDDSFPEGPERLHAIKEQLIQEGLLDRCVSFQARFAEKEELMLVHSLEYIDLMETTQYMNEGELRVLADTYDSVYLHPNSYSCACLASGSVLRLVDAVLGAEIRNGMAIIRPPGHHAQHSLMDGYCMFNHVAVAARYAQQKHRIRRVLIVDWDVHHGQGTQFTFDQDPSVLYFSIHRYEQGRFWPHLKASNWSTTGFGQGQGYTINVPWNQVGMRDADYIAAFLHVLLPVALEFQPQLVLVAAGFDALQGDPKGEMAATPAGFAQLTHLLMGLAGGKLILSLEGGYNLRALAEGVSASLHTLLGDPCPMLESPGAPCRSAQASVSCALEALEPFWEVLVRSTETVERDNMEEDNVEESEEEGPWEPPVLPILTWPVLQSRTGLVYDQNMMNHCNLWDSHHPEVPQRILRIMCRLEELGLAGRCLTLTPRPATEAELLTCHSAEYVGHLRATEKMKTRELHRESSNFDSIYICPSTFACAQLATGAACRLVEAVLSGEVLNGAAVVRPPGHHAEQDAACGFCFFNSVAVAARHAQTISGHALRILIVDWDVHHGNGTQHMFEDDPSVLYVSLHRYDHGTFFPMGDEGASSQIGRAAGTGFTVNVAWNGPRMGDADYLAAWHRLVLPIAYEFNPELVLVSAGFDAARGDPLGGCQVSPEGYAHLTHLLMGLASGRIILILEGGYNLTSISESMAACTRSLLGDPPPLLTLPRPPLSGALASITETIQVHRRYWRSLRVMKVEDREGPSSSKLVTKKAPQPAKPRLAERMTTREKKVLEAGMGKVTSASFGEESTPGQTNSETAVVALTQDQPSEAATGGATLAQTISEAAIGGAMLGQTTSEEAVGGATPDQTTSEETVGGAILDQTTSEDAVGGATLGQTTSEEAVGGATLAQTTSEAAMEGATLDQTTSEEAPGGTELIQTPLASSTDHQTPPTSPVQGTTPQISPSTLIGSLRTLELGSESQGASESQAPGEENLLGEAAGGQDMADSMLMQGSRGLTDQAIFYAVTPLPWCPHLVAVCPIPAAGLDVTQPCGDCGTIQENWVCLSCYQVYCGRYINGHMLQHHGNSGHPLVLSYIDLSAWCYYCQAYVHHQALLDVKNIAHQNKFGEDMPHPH

HCT-116 = experiment: In vivo antitumor activity against human HCT116 cells; format: functional, organism-based
Histone deacetylase 4 = Histone deacetylase 4 (Homo sapiens, UniProt P56524); experiment: Inhibition of HDAC4
Histone deacetylase 5 = Histone deacetylase 5 (Homo sapiens, UniProt Q9UQL6); experiment: Inhibition of HDAC5
Histone deacetylase 7 = biological target: T2, Histone deacetylase 7 (Homo sapiens, UniProt Q8WUI4); experiment: Inhibition of HDAC7
T2 sequence (Q8WUI4 whole entry): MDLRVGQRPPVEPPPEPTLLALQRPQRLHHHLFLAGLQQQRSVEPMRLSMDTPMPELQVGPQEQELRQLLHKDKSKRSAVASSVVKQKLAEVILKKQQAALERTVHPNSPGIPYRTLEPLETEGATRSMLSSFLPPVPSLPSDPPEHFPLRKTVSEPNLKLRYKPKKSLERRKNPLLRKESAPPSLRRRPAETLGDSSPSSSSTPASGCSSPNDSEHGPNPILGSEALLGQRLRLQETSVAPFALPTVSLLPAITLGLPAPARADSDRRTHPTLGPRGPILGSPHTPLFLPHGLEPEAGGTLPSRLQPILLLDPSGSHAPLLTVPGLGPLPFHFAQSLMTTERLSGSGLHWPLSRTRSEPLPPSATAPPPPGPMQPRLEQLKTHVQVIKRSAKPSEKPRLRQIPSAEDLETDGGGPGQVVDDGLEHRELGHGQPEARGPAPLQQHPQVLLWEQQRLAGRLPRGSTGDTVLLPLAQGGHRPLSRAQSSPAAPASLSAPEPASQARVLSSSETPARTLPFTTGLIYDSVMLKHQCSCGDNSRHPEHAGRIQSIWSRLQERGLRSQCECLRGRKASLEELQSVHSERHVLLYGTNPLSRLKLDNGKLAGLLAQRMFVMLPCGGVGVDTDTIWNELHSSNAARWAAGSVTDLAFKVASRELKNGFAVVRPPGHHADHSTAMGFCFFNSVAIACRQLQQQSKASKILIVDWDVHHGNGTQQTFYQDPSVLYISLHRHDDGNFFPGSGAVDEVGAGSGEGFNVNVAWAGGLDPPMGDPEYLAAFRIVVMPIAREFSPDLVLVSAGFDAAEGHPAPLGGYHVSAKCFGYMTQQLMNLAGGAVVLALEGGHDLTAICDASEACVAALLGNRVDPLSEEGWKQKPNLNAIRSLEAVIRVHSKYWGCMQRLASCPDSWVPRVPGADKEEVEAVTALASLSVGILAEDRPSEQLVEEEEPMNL

Histone deacetylase 8 = biological target: T3, Histone deacetylase 8 (Homo sapiens, UniProt Q9BY41); experiment: Inhibition of HDAC8
T3 sequence (Q9BY41 whole entry): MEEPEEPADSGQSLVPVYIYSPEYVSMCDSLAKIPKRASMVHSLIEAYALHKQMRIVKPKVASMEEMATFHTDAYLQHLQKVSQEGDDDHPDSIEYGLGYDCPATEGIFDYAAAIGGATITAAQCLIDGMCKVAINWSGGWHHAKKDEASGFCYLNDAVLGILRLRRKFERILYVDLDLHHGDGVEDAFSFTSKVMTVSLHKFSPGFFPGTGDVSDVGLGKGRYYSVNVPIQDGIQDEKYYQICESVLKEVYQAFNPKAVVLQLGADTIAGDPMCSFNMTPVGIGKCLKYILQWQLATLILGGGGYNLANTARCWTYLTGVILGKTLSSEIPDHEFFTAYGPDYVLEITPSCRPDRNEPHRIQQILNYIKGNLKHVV

Histone deacetylase 3, sequence (O15379 whole entry): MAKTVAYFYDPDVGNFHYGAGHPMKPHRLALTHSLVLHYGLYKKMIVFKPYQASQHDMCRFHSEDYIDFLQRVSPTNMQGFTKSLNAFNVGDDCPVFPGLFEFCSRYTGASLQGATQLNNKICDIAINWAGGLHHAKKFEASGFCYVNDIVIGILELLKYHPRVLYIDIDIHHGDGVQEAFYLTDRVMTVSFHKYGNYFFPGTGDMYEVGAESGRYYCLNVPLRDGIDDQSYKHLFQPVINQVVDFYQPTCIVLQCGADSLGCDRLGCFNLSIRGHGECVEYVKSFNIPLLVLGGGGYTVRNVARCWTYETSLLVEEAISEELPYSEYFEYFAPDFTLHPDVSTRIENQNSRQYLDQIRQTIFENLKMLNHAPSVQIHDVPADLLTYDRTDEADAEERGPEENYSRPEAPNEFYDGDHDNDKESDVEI
Histone deacetylase 1, sequence (Q13547 whole entry): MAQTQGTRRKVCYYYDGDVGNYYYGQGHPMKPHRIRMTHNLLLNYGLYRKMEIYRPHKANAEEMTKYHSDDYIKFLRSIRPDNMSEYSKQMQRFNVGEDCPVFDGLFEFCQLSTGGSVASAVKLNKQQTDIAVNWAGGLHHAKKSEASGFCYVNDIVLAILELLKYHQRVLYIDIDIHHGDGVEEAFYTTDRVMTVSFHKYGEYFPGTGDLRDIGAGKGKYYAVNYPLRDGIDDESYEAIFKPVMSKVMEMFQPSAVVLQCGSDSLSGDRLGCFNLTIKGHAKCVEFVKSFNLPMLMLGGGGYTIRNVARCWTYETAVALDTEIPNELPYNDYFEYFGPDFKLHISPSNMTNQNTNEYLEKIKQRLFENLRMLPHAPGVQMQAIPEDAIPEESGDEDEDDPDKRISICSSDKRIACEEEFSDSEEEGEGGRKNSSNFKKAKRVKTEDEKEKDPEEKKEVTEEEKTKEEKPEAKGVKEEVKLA
Histone deacetylase 5, sequence (Q9UQL6 whole entry): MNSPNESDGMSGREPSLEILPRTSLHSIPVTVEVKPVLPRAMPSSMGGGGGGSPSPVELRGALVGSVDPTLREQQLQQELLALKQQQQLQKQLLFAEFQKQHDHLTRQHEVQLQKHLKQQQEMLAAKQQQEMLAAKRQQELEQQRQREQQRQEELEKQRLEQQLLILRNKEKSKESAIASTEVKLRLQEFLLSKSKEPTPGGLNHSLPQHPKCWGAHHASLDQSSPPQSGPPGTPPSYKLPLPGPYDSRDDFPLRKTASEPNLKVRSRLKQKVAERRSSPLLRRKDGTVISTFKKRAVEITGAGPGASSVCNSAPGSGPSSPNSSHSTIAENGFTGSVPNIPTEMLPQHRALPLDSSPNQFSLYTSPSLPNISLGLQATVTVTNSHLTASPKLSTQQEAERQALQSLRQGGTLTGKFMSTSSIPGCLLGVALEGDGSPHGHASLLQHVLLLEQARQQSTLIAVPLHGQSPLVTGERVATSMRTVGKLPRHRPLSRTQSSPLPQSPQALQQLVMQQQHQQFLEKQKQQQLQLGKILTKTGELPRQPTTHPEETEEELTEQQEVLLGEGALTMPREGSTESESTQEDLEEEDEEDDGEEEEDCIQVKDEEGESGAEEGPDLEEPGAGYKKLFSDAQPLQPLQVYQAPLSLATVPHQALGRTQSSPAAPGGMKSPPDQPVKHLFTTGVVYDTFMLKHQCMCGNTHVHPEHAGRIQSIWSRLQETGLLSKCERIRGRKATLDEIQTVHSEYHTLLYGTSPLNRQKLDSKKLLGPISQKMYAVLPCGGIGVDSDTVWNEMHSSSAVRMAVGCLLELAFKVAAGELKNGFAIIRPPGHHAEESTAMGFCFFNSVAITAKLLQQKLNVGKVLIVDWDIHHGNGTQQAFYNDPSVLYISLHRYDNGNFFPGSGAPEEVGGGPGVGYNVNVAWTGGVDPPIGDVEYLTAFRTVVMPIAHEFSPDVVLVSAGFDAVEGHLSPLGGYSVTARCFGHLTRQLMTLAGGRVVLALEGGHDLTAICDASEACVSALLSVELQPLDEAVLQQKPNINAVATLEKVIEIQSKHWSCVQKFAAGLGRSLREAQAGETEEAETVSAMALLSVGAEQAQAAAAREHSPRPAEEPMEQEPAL
Histone deacetylase 4, sequence (P56524 whole entry): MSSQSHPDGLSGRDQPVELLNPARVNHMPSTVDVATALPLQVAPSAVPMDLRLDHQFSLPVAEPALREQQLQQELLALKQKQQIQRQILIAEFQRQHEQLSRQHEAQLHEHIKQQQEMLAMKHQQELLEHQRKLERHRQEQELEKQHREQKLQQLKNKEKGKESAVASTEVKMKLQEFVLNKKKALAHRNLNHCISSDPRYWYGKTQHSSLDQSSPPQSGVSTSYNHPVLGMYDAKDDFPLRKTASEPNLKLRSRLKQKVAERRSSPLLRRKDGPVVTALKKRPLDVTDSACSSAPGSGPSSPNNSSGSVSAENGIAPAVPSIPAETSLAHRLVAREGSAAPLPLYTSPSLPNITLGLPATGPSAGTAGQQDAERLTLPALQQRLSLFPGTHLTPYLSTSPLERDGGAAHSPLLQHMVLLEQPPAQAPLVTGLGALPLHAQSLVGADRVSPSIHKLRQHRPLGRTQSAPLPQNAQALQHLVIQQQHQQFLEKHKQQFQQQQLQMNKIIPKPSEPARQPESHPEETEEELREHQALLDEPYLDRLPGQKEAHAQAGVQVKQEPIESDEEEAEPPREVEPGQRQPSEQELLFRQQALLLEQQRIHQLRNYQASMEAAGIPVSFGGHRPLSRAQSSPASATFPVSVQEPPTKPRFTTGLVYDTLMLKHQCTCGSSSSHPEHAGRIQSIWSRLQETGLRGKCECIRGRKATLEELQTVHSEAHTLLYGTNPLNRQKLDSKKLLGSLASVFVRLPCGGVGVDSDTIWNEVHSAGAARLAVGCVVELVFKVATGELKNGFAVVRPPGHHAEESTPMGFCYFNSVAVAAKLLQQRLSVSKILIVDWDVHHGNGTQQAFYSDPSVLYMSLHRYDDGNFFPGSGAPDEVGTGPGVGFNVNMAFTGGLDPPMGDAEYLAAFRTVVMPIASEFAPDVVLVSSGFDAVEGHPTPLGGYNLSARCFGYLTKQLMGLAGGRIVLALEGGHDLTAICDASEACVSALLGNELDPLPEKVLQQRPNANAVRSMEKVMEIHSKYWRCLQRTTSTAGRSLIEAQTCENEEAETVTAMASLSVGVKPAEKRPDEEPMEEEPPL

| IC50 (HeLa) [nM] | microsomal CLint [1] [µL/min/mg] | IC50 (Histone deacetylase 1) [nM] | SMILES | further results |
| --- | --- | --- | --- | --- |
| 1300 | > 300 | 190 | CC(=O)CCCCC[C@H](NC(=O)CCN1CCCCC1)c1ncc(-c2ccccc2)[nH]1 |  |
| 1540 |  | 480 | CC(=O)CCCCC[C@H](NC(=O)C1CCN(C)CC1)c1ncc(-c2cccc(C#N)c2)[nH]1 |  |
| 1200 |  | 180 | CC(=O)CCCCC[C@H](NS(=O)(=O)c1ccc(C#N)cc1)c1ncc(-c2ccccc2)[nH]1 |  |
| 1500 | 330 | 120 | CC(=O)CCCCC[C@H](NC(=O)C1CCN(C)CC1)c1ncc(-c2ccc(C#N)cc2)[nH]1 |  |
| 530 |  | 140 | CC(=O)CCCCC[C@H](NC(=O)c1cncs1)c1ncc(-c2ccccc2)[nH]1 |  |
| 680 | 246 | 75 | CC(=O)CCCCC[C@H](NC(=O)C1CCN(C)CC1)c1ncc(-c2ccc(Cl)cc2)[nH]1 |  |
| 1000 |  | 130 | CC(=O)CCCCC[C@H](NS(=O)(=O)c1ccc([N+](=O)[O-])c(F)c1)c1ncc(-c2ccccc2)[nH]1 |  |
| 3200 |  | 240 | CC(=O)CCCCC[C@H](NC(=O)C1CCN(C)CC1)c1ncc(-c2ccsc2)[nH]1 |  |
| 1100 |  | 300 | CC(=O)CCCCC[C@H](NC(=O)c1ccc2c(c1)OCCO2)c1ncc(-c2ccccc2)[nH]1 |  |
| 690 |  | 74 | CCCCC(=O)CCCCC[C@H](NC(=O)C1CCN(C)CC1)c1ncc(-c2ccc3ccccc3c2)[nH]1 | IC50 (Histone deacetylase 3): 180 nM; IC50 [2]: 3500 nM |
| 7300 |  | 270 | CC(=O)CCCCC[C@H](NS(=O)(=O)c1ccccc1C#N)c1ncc(-c2ccccc2)[nH]1 |  |
| 1300 |  | 180 | CC(=O)CCCCC[C@H](NC(=O)C1CCN(C)CC1)c1ncc(-c2ccccc2Cl)[nH]1 |  |
| 1300 |  | 55 | CC(=O)CCCCC[C@H](NS(=O)(=O)c1cccc([N+](=O)[O-])c1)c1ncc(-c2ccccc2)[nH]1 |  |
| > 25000 |  | > 5000 | CC(=O)CCCCC[C@H](NC(=O)C1CCN(C)CC1)c1ncc(C(C)(C)C)[nH]1 |  |
| 550 | > 300 | 100 | CC(=O)CCCCC[C@H](NC(=O)C1CCN(C)CC1)c1ncc(-c2ccc(Br)cc2)[nH]1 |  |
| 390 | 170 | 50 | CC(=O)CCCCC[C@H](NC(=O)C1CCN(C)CC1)c1ncc(-c2ccc(-c3ccccc3)cc2)[nH]1 |  |
| 200 |  | 16 | CCCC(=O)CCCCC[C@H](NC(=O)C1CCN(C)CC1)c1ncc(-c2ccc3ccccc3c2)[nH]1 | IC50 (Histone deacetylase 3): 27 nM; IC50 [2]: 1400 nM |

| IC50 (HeLa) [nM] | microsomal CLint [1] [µL/min/mg] | IC50 (Histone deacetylase 1) [nM] | SMILES | further results |
| --- | --- | --- | --- | --- |
| 400 |  | 90 | CC(=O)CCCCC[C@H](NC(=O)C1CCN(C)CC1)c1ncc(-c2cccc(Cl)c2)[nH]1 |  |
| 1100 |  | 160 | CC(=O)CCCCC[C@H](NC(=O)c1cccc(C#N)c1)c1ncc(-c2ccccc2)[nH]1 |  |
| 1100 |  | 110 | CC(=O)CCCCC[C@H](NS(=O)(=O)c1cccc(C#N)c1)c1ncc(-c2ccccc2)[nH]1 |  |
| 1300 |  | 180 | CC(=O)CCCCC[C@H](NC(=O)C1CCN(C)CC1)c1ncc(-c2csc3ccccc23)[nH]1 |  |
|  | > 300 |  | COc1ccc2[nH]c(C)c(CC(=O)N[C@@H](CCCCCC(C)=O)c3ncc(-c4ccccc4)[nH]3)c2c1 | Activity (HCT-116): Active; IC50 (Histone deacetylase 4): > 1000 nM; IC50 (Histone deacetylase 5): > 1000 nM; IC50 (Histone deacetylase 7): > 1000 nM; IC50 (Histone deacetylase 8): > 1000 nM |
| 14700 |  | > 1500 | CC(=O)CCCCC[C@H](NC(=O)C1CCN(C)CC1)c1nc(C)c(-c2ccccc2)[nH]1 |  |
| 980 | 68 | 250 | CC(=O)CCCCC[C@H](NC(=O)C1CCN(C)CC1)c1ncc(-c2ccccc2)[nH]1 |  |
| 1700 | 143 | 220 | CC(=O)CCCCC[C@H](NC(=O)CCN1CC2CCC1C2)c1ncc(-c2ccccc2)[nH]1 (stereo partly drawn) |  |
| 2000 | 64 | 500 | CC(=O)CCCCC[C@H](NC(=O)CN1CCN(C)CC1)c1ncc(-c2ccccc2)[nH]1 |  |
| 9700 |  | > 500 | CC(=O)CCCCC[C@H](NC(=O)C1CCN(C)CC1)c1ncc(-c2ccccn2)[nH]1 |  |
| 1400 |  | 250 | COc1ccc(S(=O)(=O)N[C@@H](CCCCCC(C)=O)c2ncc(-c3ccccc3)[nH]2)cc1 |  |
| 210 |  | 12 | CCC(=O)CCCCC[C@H](NC(=O)C1CCN(C)CC1)c1ncc(-c2ccc3ccccc3c2)[nH]1 | IC50 (Histone deacetylase 3): 12 nM; IC50 [2]: 800 nM |
| 1100 | 501 | 280 | CC(=O)CCCCC[C@H](NC(=O)C1CCN(C)C1)c1ncc(-c2ccccc2)[nH]1 (stereo partly drawn) |  |
| 2200 | 99 | 380 | CC(=O)CCCCC[C@H](NC(=O)C1CCN(C)CC1)c1ncc(-c2ccc(F)cc2)[nH]1 |  |
| 2700 | > 300 | 710 | CC(=O)CCCCC[C@H](NC(=O)C1CCCCN1C)c1ncc(-c2ccccc2)[nH]1 (stereo partly drawn) |  |
| 400 | 154 | 220 | CC(=O)CCCCC[C@H](NC(=O)C1CCCN(C)C1)c1ncc(-c2ccccc2)[nH]1 (stereo partly drawn) |  |
